Test results as given in BindingDB's records for doi:10.7270/Q22J699S (Nmmlsc, 2010).
pEC50: −log10 of the molar value.

Each molecule was assayed against Guanine nucleotide-binding protein G(o) subunit alpha (Homo sapiens, UniProt P09471) (assay: modulators of RGS8 binding to Galphao – biochemical, multiplexed bead assay, additional SAR round, SAR follow-up (AID 2827)).
Sequence of Guanine nucleotide-binding protein G(o) subunit alpha (P09471 whole entry): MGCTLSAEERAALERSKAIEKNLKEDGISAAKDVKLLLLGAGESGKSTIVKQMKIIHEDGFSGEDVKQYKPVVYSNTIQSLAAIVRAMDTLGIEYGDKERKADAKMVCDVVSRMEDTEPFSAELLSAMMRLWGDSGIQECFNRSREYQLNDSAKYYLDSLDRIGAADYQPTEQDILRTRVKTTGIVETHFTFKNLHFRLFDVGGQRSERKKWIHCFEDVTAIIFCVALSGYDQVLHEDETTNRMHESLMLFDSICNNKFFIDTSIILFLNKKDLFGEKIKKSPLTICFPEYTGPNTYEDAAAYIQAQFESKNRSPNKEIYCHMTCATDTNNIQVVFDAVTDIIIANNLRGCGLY

pEC50	SMILES
< 4.52	O=C(NCCCn1ccnc1)c1sc2cc([N+](=O)[O-])ccc2c1Cl [3-chloro-N-[3-(1-imidazolyl)propyl]-6-nitro-1-benzothiophene-2-carboxamide]
< 4.52	Cc1ccc2c(Cl)c(C(=O)NCCCN3CCOCC3)sc2c1 [KUC103874N]

Further lines, the molecule ahead of its results:

SMILES	pEC50
O=C(c1sc2cc([N+](=O)[O-])ccc2c1Cl)N1CCNCC1	< 4.52
O=C(NCCCN1CCOCC1)c1sc2cc([N+](=O)[O-])ccc2c1Cl [3-chloranyl-N-(3-morpholin-4-ylpropyl)-6-nitro-1-benzothiophene-2-carboxamide]	< 4.52
NC(=O)c1sc2cc([N+](=O)[O-])ccc2c1Cl [KSC-1-100]	< 4.52
